Source: US20130183418A1, “METHOD OF INHIBITION OF ENZYMATIC BROWNING IN FOOD USING A SULFINIC ACID COMPOUND” (UNIVERSITY OF FLORIDA RESEARCH FOUNDATION, INC., priority 2008, published 2013)

System: apple polyphenol oxidase
Assay: Polyphenol oxidase assay, color formation from catechol at 420 nm
Format: biochemical, Red Delicious apples
Settings: for Average % Inhibition of apple PPO: average ± standard deviation, n = 6; for apple PPO activity: n=3, control 0.24±0.02
Experimental: Acetone powder containing apple polyphenol oxidase was prepared from Red Delicious apples. Cored and peeled apple pieces (200 g) were homogenized in a precooled blender along with 400 mL cold acetone (−20° C.) for 1 min and then filtered through Whatman No. 1 filter paper. The residue was extracted 3 times with 200 mL cold acetone and the resulting white powder was dried at room temperature, vacuum sealed in commercial plastic bags, and stored at −20° C. until needed. Crude PPO enzyme from the acetone powder was reconstituted in 0.1 M KH2PO4/Na2HPO4, pH 7.2 Containing 1% Triton X-100 (Bio-Rad Laboratories, Hercules, Calif.) using modified procedures of Murata et al. “Relationship between apple ripening and browning—changes in polyphenol content and polyphenol oxidase”, Journal of Agricultural and Food Chemistry 1995, 43 (5), 1115-21 and Yemenicioglu et al. “Heat inactivation kinetics of apple polyphenoloxidase and activation of its latent form”, Journal of Food Science 1997, 62 (3): 508-10. Acetone powder (1 g) was added to 50 mL of refrigerated 0.1 M KH2PO4/Na2HPO4, pH 7.2 buffer containing 1% TritonX-100 (Bio-Rad Laboratories, Hercules, Calif.) and the mixture was stirred for 20 min at 4° C. The suspension was centrifuged at 1200×g for 30 min, then filtered through glass wool and stored at −20° C. where it remained stable for at least 1 month.
A standard reaction mixture for evaluation of browning inhibition where the hypotaurine comprising solution was a mussel extract, consisted of 2.45 mL of 0.1 sodium acetate/acetic acid buffer, pH 5.5, 0.2 ml mussel extract (or additional pH 5.5 buffer for a control run for comparison), 0.3 mL of 0.5 M catechol (Sigma, St. Louis, Mo.) and 0.05 mL of enzyme extract. The percent inhibition was calculated with the following formula: I=100*(A-B)/A, where A and B are the greatest initial linear rate of the control and the test system respectively.
Polyphenol oxidase activity was measured by monitoring the increase in color (absorbance at 420 nm) in a reaction mixture with catechol as a substrate. […] From the data in FIG. 1, the inhibition of polyphenol oxidase by 90 ppm of hypotaurine was calculated to be 97 percent with a 30 fold decrease in the rate of browning. The mussel extract was employed in a similar manner and inhibition was calculated to be 93 percent with a 14 fold decrease in the rate of browning. […]

[1] = 90 ppm of hypotaurine, catechol substrate, FIG. 1

Row | SMILES | Average % Inhibition of apple PPO (67.5 μM) | Average % Inhibition of apple PPO (250 μM) | Average % Inhibition of apple PPO (500 μM) | Average % Inhibition of apple PPO (500 μM, listed as hypotaurine) | fold decrease in the rate of browning [1] | inhibition of polyphenol oxidase [1] | Average % Inhibition of apple PPO (500 μM, listed as methane sulfinic acid) | apple PPO activity (67.5 μM) | apple PPO activity (250 μM) | apple PPO activity (500 μM) | inhibition of apple PPO (in words) (67.5 to 500 μM)
1 | O=S(O)c1ccccc1 [Benzene Sulfinic Acid, benzene sulfinic acid] | 20.9 ± 16.15% | 98.5 ± 1.28% | 100% | – | – | – | – | – | – | – | –
2 | NCCS(=O)O [Hypotaurine, 2-aminoethane sulfinic acid] | 39.1 ± 4.48% | 80.0 ± 14.90% | 89.8 ± 7.65% | 89% | 30 fold | 97% | – | – | – | – | –
3 | CS(=O)O [Methane Sulfinic Acid, methane sulfinic acid] | 33.7 ± 0.69% | 96.8 ± 0.69% | 99.8 ± 0.11% | – | – | – | 100% | – | – | – | –
4 | NCCS(=O)(=O)O [Taurine, reference compound] | – | – | – | – | – | – | – | 0.23±0.04 ΔA420 nm/min | 0.25±0.01 ΔA420 nm/min | 0.23±0.01 ΔA420 nm/min | did not inhibit
